Assays:
CXCR3 = biological target: T1, CXCR3 (Homo sapiens, UniProt P49682); experiment: NanoBRET screen HiBiT-CXCR3 in HEK293; format: binding
T1 construct: purchased Promega (in-house HiBiT-GPCR construct library, NanoBRET)
T1 sequence (P49682 1-368): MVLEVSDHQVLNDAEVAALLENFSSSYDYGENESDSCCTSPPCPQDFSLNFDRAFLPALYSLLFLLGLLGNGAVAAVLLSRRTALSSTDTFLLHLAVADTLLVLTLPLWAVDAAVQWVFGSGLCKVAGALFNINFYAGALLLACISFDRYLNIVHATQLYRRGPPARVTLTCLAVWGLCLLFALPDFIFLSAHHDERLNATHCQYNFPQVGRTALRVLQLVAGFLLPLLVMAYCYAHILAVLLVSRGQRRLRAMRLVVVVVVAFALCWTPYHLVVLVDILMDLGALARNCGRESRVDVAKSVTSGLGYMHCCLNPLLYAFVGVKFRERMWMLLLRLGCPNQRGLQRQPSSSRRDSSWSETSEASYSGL
Procedure: (§1) Each tracer candidate was screened across the entire library of HiBiT-GPCR constructs using NanoBRET as the detection modality. As depicted in Figure 4A, the specificity of interactions was evaluated through decrease in BRET due to competitive displacement of a bound tracer by excess parental compound. Each tracer was analyzed for binding to each HiBiT-GPCR fusion in the absence and in the presence of competing parental compound. Briefly, HEK293 cells were transfected with HiBiT-GPCR constructs diluted into promoterless DNA to reduce expression and maximize translocation to the cell surface. Each tracer candidate was then screened at concentrations of 1 μM and 0.1 μM across cells expressing these fusions. Cells were treated for 1.5 h with tracer either alone or in the presence of 20 μM competing parental compound (i.e., control). BRET was measured upon addition of purified LgBiT and subsequent complementation with HiBiT genetically fused to a GPCR. The specificity of interactions was assessed through a decrease in BRET signal due to competitive displacement of the bound tracer. To further gauge the robustness of these interactions, the fold response over the control (i.e., BRETtracer/BRETcontrol) was calculated. We chose a 1.5-fold response, which translates to ≥7-fold signal over noise as the minimal threshold required to score an interaction as positive. […]. Below we highlight the screening results obtained for our exemplary fluorescent tracers based on Clozapine, Amitriptyline and AZD1283.
(§2) HiBiT-GPCR DNA constructs were diluted in 10 mM Tris pH 8 to a final concentration of 0.01 μg/μL, arrayed in 96-well plates and stored at −20 °C. For transfection, HEK293 cells were suspended in Opti-MEM (without phenol red) supplemented with 2% fetal bovine serum (Seradigm) and 100 units/mL penicillin–streptomycin (Gibco) at a final concentration of 220,000 cells/mL and dispensed into white 96-well plates at 90 μL/well. Subsequent transfections and screens were carried using an Agilent Bravo Automated Liquid Handling Platform. First, the 96-well HiBiT DNA arrays were diluted 25-fold in Opti-MEM (without serum or phenol red) to a final concentration of 0.0004 μg/μL and 20 μL of the diluted DNAs were transferred into new 96-well plates. Next, promoterless carrier DNA (1 μg/μL) was diluted 25-fold (0.04 μg/μL) and then dispensed into the diluted arrays at 20 μL/well. Following brief mixing, Viafect transfection reagent (Promega) diluted 16-fold into Opti-MEM was dispensed into the plates at 40 μL/well. After mixing by pipetting, plates were incubated for 10 min on the pipetting station deck. The DNA-transfection reagent complexes were then added to plates containing cells. To facilitate the screen, 10 μL of DNA-transfection reagent complexes were added in duplicates to the top 4 and bottom 4 rows, resulting in two identical 48-well arrays per plate. Plates with transfected cells were incubated for 18–20 h at 37 °C/5% CO2. A screen of each tracer across the entire library using two different concentrations requires duplicate plates of transfected cells. Depending on the number of tracers being screened, transfections can be scaled up using the same ratios. The next day, for each tracer, four 20× screening solutions in tracer dilution buffer (Promega) were prepared: two duplicates at final concentration of 20 μM and two duplicates at a final concentration of 2 μM. A competing unmodified compound was added to one of each duplicate at a final concentration of 400 μM. The four resulting solutions were diluted 4-fold in Opti-MEM without serum or phenol red to generate 5× solutions (5 µM and 0.5 µM tracer +/− 100 μM competing compound). To screen the library, a BioTek MultiFlo FX liquid dispenser was used to dispense 22.5 µL of tracer solution to the top 4 rows and 22.5 µL tracer + competing compound solution to the 4 bottom rows. Plates were briefly mixed on an orbital shaker and incubated for 1.5 h at room temperature. […]

F2R = biological target: T2, F2R (Homo sapiens, UniProt P25116); experiment: NanoBRET screen HiBiT-F2R in HEK293; format: binding
T2 construct: purchased Promega (in-house HiBiT-GPCR construct library, NanoBRET)
T2 sequence (P25116 22-425): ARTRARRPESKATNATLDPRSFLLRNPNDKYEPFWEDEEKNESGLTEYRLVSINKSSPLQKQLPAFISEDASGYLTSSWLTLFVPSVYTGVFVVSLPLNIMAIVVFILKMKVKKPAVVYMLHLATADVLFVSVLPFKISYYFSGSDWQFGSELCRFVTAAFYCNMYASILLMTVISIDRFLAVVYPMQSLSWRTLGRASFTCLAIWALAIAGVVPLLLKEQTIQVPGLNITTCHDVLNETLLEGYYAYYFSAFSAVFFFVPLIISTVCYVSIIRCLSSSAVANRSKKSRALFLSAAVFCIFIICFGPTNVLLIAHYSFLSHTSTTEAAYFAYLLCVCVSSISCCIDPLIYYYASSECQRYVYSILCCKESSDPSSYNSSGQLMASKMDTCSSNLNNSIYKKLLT
Procedure: as §1, §2

[1] = tracer at 0.1μM, listed as amitriptyline-b-2-NB590
[2] = tracer at 1μM, listed as amitriptyline-b-2-NB590

CCOC(=O)c1cc(C#N)c(N2CCC(C(=O)NS(=O)(=O)Cc3ccccc3/C=C/C(=O)NCCNC(=O)CCc3ccc4n3[B-](F)(F)[N+]3=C(c5ccc[nH]5)C=CC3=C4)CC2)nc1C [AZD1283-1-NB590]
NanoBRET Fold Response (CXCR3; CXCR3, 0.1μM): 0.98
NanoBRET Fold Response (CXCR3; CXCR3, 1μM): 1.17
NanoBRET Fold Response (F2R; F2R, 0.1μM): 1.01
NanoBRET Fold Response (F2R; F2R, 1μM): 1.01

N#CN=C(NCCCOc1cccc(CN2CCCCC2)c1)NCCNC(=O)CCOCCOCCOCCOCCNC(=O)CCc1ccc2n1[B-](F)(F)[N+]1=C(c3ccc[nH]3)C=CC1=C2 [Aminopotentidine-2-NB590]
NanoBRET Fold Response (CXCR3; CXCR3, tracer 0.1μM): 1.33
NanoBRET Fold Response (CXCR3; CXCR3, tracer 1μM): 1.05
NanoBRET Fold Response (F2R; F2R, tracer 0.1μM): 1.06
NanoBRET Fold Response (F2R; F2R, tracer 1μM): 1.00

CN(C)CCC=C1c2ccccc2CCc2ccc(C(=O)NCCNC(=O)CCOCCOCCOCCOCCNC(=O)CCc3ccc4n3[B-](F)(F)[N+]3=C(c5ccc[nH]5)C=CC3=C4)cc21 [Amitriptyline-a-2-NB590]
NanoBRET Fold Response (CXCR3; tracer at 0.1μM): 1.00
NanoBRET Fold Response (CXCR3; tracer at 1μM): 0.97
NanoBRET Fold Response (F2R; tracer at 0.1μM): 0.94
NanoBRET Fold Response (F2R; tracer at 1μM): 0.98

CN(C)CCC=C1c2ccccc2CCc2ccc(C(=O)NCCNC(=O)CCOCCOCCOCCOCCNC(=O)CCc3ccc4n3[B-](F)(F)[N+]3=C(c5ccc[nH]5)C=CC3=C4)cc21 [Amitriptyline-b-2-NB590]
NanoBRET Fold Response (CXCR3; [1]): 1.05
NanoBRET Fold Response (CXCR3; [2]): 0.98
NanoBRET Fold Response (F2R; [1]): 0.76
NanoBRET Fold Response (F2R; [2]): 0.97

CN(CCC=C1c2ccccc2CCc2ccccc21)C(=O)CCOCCOCCOCCOCCNC(=O)CCc1ccc2n1[B-](F)(F)[N+]1=C(c3ccc[nH]3)C=CC1=C2 [Amitriptyline-e-2-NB590]
NanoBRET Fold Response (CXCR3; tracer at 1μM): 1.22

COc1ccc2c(n1)c(CCNC(C)=O)cn2CCNC(=O)CCc1ccc2n1[B-](F)(F)[N+]1=C(c3ccc[nH]3)C=CC1=C2 [Azamelatonin-1-NB590]
NanoBRET Fold Response (CXCR3; 0.1μM tracer): 1.19
NanoBRET Fold Response (CXCR3; 1μM tracer): 0.93
NanoBRET Fold Response (F2R; 0.1μM tracer): 0.98
NanoBRET Fold Response (F2R; 1μM tracer): 0.96

COc1ccc2[nH]c(-c3ccc(CNC(=O)CCOCCOCCOCCOCCNC(=O)CCc4ccc5n4[B-](F)(F)[N+]4=C(c6ccc[nH]6)C=CC4=C5)cc3)c(CCNC(C)=O)c2n1 [AzomelatoninICO9-2-NB590]
NanoBRET Fold Response (CXCR3; 0.1μM tracer): 0.79
NanoBRET Fold Response (CXCR3; 1μM tracer): 0.91
NanoBRET Fold Response (F2R; 0.1μM tracer): 1.38
NanoBRET Fold Response (F2R; 1μM tracer): 0.84

O=C(CCOCCOCCOCCOCCNC(=O)CCc1ccc2n1[B-](F)(F)[N+]1=C(c3ccc[nH]3)C=CC1=C2)NCCCN1CCN(C2=Nc3cc(Cl)ccc3Nc3ccccc32)CC1 [Clozapine-a-2-NB590]
NanoBRET Fold Response (CXCR3; CXCR3, 0.1μM tracer): 1.02
NanoBRET Fold Response (CXCR3; CXCR3, 1μM tracer): 1.22
NanoBRET Fold Response (F2R; F2R, 0.1μM tracer): 1.12
NanoBRET Fold Response (F2R; F2R, 1μM tracer): 1.05

CN1CCN(C2=Nc3cc(Cl)ccc3Nc3ccc(CNC(=O)CCOCCOCCOCCOCCNC(=O)CCc4ccc5n4[B-](F)(F)[N+]4=C(c6ccc[nH]6)C=CC4=C5)cc32)CC1 [Clozapine-b-2-NB590]
NanoBRET Fold Response (CXCR3; CXCR3, 0.1μM tracer): 0.97
NanoBRET Fold Response (CXCR3; CXCR3, 1μM tracer): 0.94
NanoBRET Fold Response (F2R; F2R, 0.1μM tracer): 1.02
NanoBRET Fold Response (F2R; F2R, 1μM tracer): 1.01

CN1CCN(C2=Nc3cc(Cl)ccc3N(CC(=O)NCCOCCOCCOCCOCCNC(=O)CCc3ccc4n3[B-](F)(F)[N+]3=C(c5ccc[nH]5)C=CC3=C4)c3ccccc32)CC1 [Clozapine-c-2-NB590]
NanoBRET Fold Response (CXCR3; CXCR3, 0.1μM tracer): 1.01
NanoBRET Fold Response (CXCR3; CXCR3, 1μM tracer): 0.76
NanoBRET Fold Response (F2R; F2R, 0.1μM tracer): 0.99
NanoBRET Fold Response (F2R; F2R, 1μM tracer): 0.99

O=C(CCOCCOCCOCCOCCNC(=O)CCc1ccc2n1[B-](F)(F)[N+]1=C(c3ccc[nH]3)C=CC1=C2)NCCCN1CCN(C2=Nc3ccccc3Oc3ccc(Cl)cc32)CC1 [Loxapine-a-2-NB590]
NanoBRET Fold Response (CXCR3; CXCR3, tracer 0.1μM): 1.04
NanoBRET Fold Response (CXCR3; CXCR3, tracer 1μM): 1.26
NanoBRET Fold Response (F2R; F2R, tracer 0.1μM): 0.97
NanoBRET Fold Response (F2R; F2R, tracer 1μM): 1.05

COc1ccccc1N1CCN(CCCCN2C(=O)c3ccc(CNC(=O)CCOCCOCCOCCOCCNC(=O)CCc4ccc5n4[B-](F)(F)[N+]4=C(c6ccc[nH]6)C=CC4=C5)cc3C2=O)CC1 [NAN-190-2-NB590]
NanoBRET Fold Response (CXCR3; CXCR3, tracer 0.1μM): 0.94
NanoBRET Fold Response (F2R; F2R, tracer 0.1μM): 1.07
NanoBRET Fold Response (F2R; F2R, tracer 1μM): 0.93

Source: publication PMC8151276, “An Integrated Approach toward NanoBRET Tracers for Analysis of GPCR Ligand Engagement” (Molecules, 2021)
